Laboratory results as given in patent US11129840B2, “Methods for identifying novel dosing regimens” (Zavante Therapeutics, Inc., priority 2017, dated 2021).

Tests used:
Pa isolates = assay: Time kill assays against 12 isolates; type: cell-based, Pseudomonas aeruginosa; settings: tested alone, FOS-S isolates; >3-log10 reduction at 12 and/or 24 hours
Method: Forty-three Pa isolates (recovered from unique patients) were selected for testing. […] Interactions between FOS and other agents were determined by double disc testing on Mueller Hinton agar. Discs containing 300 μg FOS and 50 G6P were used, along with commercially available Kirby Bauer discs for other agents. Intravenous FOS MIC breakpoints are not established. […] Time kill assays against 12 isolates were performed for FOS, CAZ-AVI, CFT-TAZ and PIP-TAZ (alone, and each agent in combination with FOS) at the respective MIC (or breakpoint MIC for resistant isolates). Bactericidal activity during time-kills was defined as >3-log10 reduction at 12 and/or 24 hours, compared to starting inoculum. Synergy during time-kills was defined as >2-log10 reduction at 12 and/or 24 hours, compared to best single agent alone.

[1] = system: Carbapenem-resistant Enterobacteriaceae (CRE) clinical isolates; assay: Susceptibility testing, CRE clinical isolates; type: cell-based; settings: 50 isolates
[2] = system: ESBL-producing K. pneumoniae isolate; assay: Time-kill kinetic analysis; type: cell-based, Klebsiella pneumoniae; settings: CAZ ¼ and 1×MIC, by 4-8 h
Method: Broth microdilution for FOS (Mueller-Hinton broth supplemented with 25 μg/mL glucose-6-phosphate) and comparators was performed before performing TKK. TKK employed MIC multiples for FOS, and ¼ and 1×MIC of select comparators, and combinations of FOS and comparator. TKK were sampled for colony counts at T0, T2, T4, T8 and T24 hours (h). Two Klebsiella pneumoniae isolates (one KPC and one ESBL), two Pseudomonas aeruginosa isolates (non-MDR), and one Acinetobacter baumannii isolate (MDR) were tested.

Compound	% of isolates with bactericidal activity (Pa isolates)	Non-susceptiblity rate [1]	decrease in CFU [2]
Piperacillin-tazobactam [PTZ]	8%	96%	
ceftolozane-tazobactam [C-T]	8%	43%	
C[C@@H](O)[C@H]1C(=O)N2C(C(=O)O)=C(S[C@@H]3CN[C@H](C(=O)N(C)C)C3)[C@H](C)[C@H]12 [MEM, Meropenem]		82%	
CC(C)(O/N=C(\C(=O)N[C@@H]1C(=O)N2C(C(=O)[O-])=C(C[n+]3ccccc3)CS[C@H]12)c1csc(N)n1)C(=O)O [CAZ, ceftazidime]		92%	0.9-2.1 log10 CFU
C[C@@H](O)[C@H]1C(=O)N2C(C(=O)O)=C(SCCN=CN)C[C@H]12 [IMP, Imipenem]		86%	
ceftazidime-avibactam [C-A]	8%	6%	
Gentamicin		54%	
